Measured values from US12540173B2, “Methods of treating cancer by targeting ZSCAN4 activity in cancer stem cells” (University of Maryland, Baltimore, priority 2019, dated 2026).
Read-outs that look alike come from different tables or passages of the source.

What was measured:
tet-ZSCAN4 cells = test: Dox-regulated ZSCAN4 induction and clearance, immunoblot; format: cell-based, human
Protocol: FIG. 9. A, An illustration of the tet-ZSCAN4 expression vector. B, Image of tet-ZSCAN4 (Tu167) cells showing expression of GFP. C, Immunoblot analyses indicate ZSCAN4 is tightly regulated by Dox and localizes to the nucleus; Controls: LDH (cytosol), Lamin-B (nucleus). D, Doxycycline addition to the culture medium (Dox+) induces ZSCAN4 within 6 hours.
Immunoblot Assays. Cytosolic proteins were extracted by Cytoskeleton buffer (10 mM PIPES, 300 mM sucrose, 100 mM NaCl, 3 mM MgCl2, 1 mM EGTA and 0.5% Triton X100), and nucleoplasm fraction was isolated. Next, pellets were lysed in urea solution (8 M Urea in 0.01 Tris pH 8+0.1M NaH2PO4) and sonicated. Samples were electrophoresed in polyacrylamide gels. PVDF membranes were blocked with 5% nonfat milk or Superblock (Thermo Fisher Scientific) for 1 hour, then incubated overnight at 4° C. with the indicated primary antibodies in blocking solution (Table 2). Membranes were washed and incubated with secondary antibodies (1:5000) for 1 hour. Secondary antibodies were visualized by ECL Chemiluminescence (ThermoFisher Scientific). […]

[1] = system: ZSCAN4 depleted Tu167 cells; conditions: increasing doses, ZSCAN4 depleted Tu167 cells compared to isogenic NTC shRNA cells, MTT
Description: FIG. 14. […] All data shown as mean±S.E.M. observed in triplicate in at least three independent experiments. Asterisks indicate: *p<0.05, **p<0.01, ***p<0.001.
Another hallmark of CSCs is multi-drug resistance, a major factor contributing to cancer recurrence. Therefore, we examined the role of ZSCAN4 in response to genotoxic drugs. To define the effect of ZSCAN4 on drug resistance, we measured cell viability after increasing doses of the DNA damaging drugs in ZSCAN4 depleted and control Tu167 cells.

[2] = system: OCT3/4, SOX2, KLF4 and NANOG; test: qPCR of pluripotent stem cell factors after ZSCAN4 knockdown; format: cell-based, human; conditions: vs NTC-shRNA
Protocol: RNA extraction and Quantitative Reverse Transcriptase Polymerase Chain Reaction (qRT-PCR). One microgram of total RNA, isolated with Trizol, was reverse transcribed by Superscript III (Invitrogen) following the manufacturer's protocol. For qPCR, 10 ng cDNA was used per well in triplicate using SYBR green reaction mix (Roche) following the manufacturer's instructions with corresponding primers (Table 1). Reactions were run on the LightCycler 480 system (Roche). Fold induction was calculated by the delta-delta Ct method.
ZSCAN4 shRNAs were tested (19-mer sense, a hairpin loop, and 19-mer anti-sense oligos): shRNA1 (SEQ ID NO:3): 5′-[…] G-3′, shRNA2 (SEQ ID NO:4): 5′-[…] TG-3, shRNA3 (SEQ ID NO:5): 5′-[…] T-3 and two were cloned into the HuSH shRNA Plasmid pRFP-C-RS (Origene). Vectors were stably transfected into Tu167 or 012SCC cells by Effectene (QIAGEN) according to the manufacturer's protocol. As controls, isogenic cell lines were also generated expressing a non-targeting control shRNA (NTC-shRNA) or an Empty vector (same vector without an shRNA cassette). Cell lines were selected with 1 μg/ml Puromycin (ThermoFisher Scientific). Knockdown was confirmed by immunostaining and by qPCR.
Next, we used two of the shRNA sequences (shRNA1 and shRNA2) to generate stable knockdown cell lines (in Tu167 and 012SCC cells). Isogenic cells for each cell line with NTC-shRNA, or empty vector were used as controls. […] Our results further indicate a decrease in the CSC markers BMI1 and EZH2 (FIG. 5C).

With `C[C@H]1c2cccc(O)c2C(=O)C2=C(O)[C@]3(O)C(=O)C(C(N)=O)=C(O)[C@@H](N(C)C)[C@@H]3[C@@H](O)[C@@H]21` [Dox, Doxycycline] the “time until ZSCAN4 is detectable after addition of Dox to the medium” value (tet-ZSCAN4 cells) was no more than 6 h.
In the case of Bleomycin [BLM], the cell viability [1] is reported as “dramatically reduced cell viability” and the cell viability ([1]; listed as Bleomycin) is reported as “hypersensitivity”.
In the case of `N.N.[Cl][Pt][Cl]` [CPT, Cisplatin], the cell viability [1] is reported as “significantly decreased cell viability” and the cell viability ([1]; listed as Cisplatin) is reported as “hypersensitivity”.
With “shRNA1: ZSCAN4 shRNA, SEQ ID NO:3: 5′-GAGAACGGTCCTAGGCCTGTCAAGAGGAGAACGGTCCTAGGCCTG-3′” the “expression of OCT3/4, SOX2, KLF4 and NANOG” value (from here on “expression of OCT3/4, SOX2”) ([2]; 012SCC stable knockdown cells) was “significant downregulation”, the “expression of OCT3/4, SOX2” value ([2]; 012SCC stable knockdown cells, listed as shRNA 1) was “decreased expression” and the “expression of OCT3/4, SOX2” value ([2]; Tu167 stable knockdown cells) was “significant downregulation”. The “expression of OCT3/4, SOX2” value ([2]; Tu167 stable knockdown cells, listed as shRNA 1) was “decreased expression”.
With “shRNA2: ZSCAN4 shRNA, SEQ ID NO:4: 5′-GATATCAGACCTACGGGTGTCAAGAGGATATCAGACCTACGGGTG-3′” the “expression of OCT3/4, SOX2” value ([2]; 012SCC stable knockdown cells) was “significant downregulation”, the “expression of OCT3/4, SOX2” value ([2]; 012SCC stable knockdown cells, listed as shRNA 2) was “decreased expression” and the “expression of OCT3/4, SOX2” value ([2]; Tu167 stable knockdown cells) was “significant downregulation”. For the same molecule, the “expression of OCT3/4, SOX2” value ([2]; Tu167 stable knockdown cells, listed as shRNA 2) was “decreased expression”.
